The values that follow come from ChEMBL document CHEMBL1909046, “DrugMatrix in vitro pharmacology data”.

Usually IC50 stands for the concentration that gives 50% inhibition.

One assay concerns the target Vasopressin V1a receptor (Homo sapiens, UniProt P37288). In kind it is cell membranes, Membrane. The settings on record: hek293. Also: in other assays of this panel Not Active means under 50% inhibition at 10 µM.
Another assay deals with T1, B2 bradykinin receptor (Homo sapiens, UniProt P30411).
T1 sequence (P30411 whole entry): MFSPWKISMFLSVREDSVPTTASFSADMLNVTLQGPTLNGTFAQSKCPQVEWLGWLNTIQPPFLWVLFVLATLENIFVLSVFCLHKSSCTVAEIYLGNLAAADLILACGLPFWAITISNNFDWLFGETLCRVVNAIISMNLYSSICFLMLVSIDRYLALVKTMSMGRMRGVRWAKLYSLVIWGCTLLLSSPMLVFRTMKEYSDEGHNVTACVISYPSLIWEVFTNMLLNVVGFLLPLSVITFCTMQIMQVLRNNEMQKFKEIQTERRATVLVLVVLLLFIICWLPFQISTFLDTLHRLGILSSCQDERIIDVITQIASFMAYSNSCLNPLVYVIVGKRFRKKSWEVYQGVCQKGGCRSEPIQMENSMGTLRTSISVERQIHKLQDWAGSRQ
In kind it is cell membranes, Membrane. The settings on record: chem-1.

The target of the next assay is T2, Calcitonin receptor (Homo sapiens, UniProt P30988). Also: in other assays of this panel Not Active means under 50% inhibition at 10 µM.
T2 sequence (P30988 whole entry): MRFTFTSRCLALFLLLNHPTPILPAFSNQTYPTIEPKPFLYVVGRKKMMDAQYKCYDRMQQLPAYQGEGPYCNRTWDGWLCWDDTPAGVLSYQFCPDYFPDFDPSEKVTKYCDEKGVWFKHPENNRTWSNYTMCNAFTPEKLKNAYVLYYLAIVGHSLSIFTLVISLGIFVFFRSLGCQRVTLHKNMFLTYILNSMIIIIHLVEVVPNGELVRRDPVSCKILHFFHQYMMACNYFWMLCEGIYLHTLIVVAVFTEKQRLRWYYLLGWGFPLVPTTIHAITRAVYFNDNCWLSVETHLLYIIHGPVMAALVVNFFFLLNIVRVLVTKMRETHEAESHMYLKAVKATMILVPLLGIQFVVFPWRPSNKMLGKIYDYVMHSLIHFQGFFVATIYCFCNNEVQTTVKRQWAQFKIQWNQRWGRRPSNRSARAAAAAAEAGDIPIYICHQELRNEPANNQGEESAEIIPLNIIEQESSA
It counts as cell membranes, Membrane. The settings on record: t47d.

Assay [1] can be described thus: DRUGMATRIX: Phosphodiesterase PDE3 enzyme inhibition (substrate: [3H]cAMP + cAMP). In kind it is tissue-based, Homo sapiens. The settings on record: platelet, Not Active = under 50% inhibition at 10 µM.
Assay [2] in a line: DRUGMATRIX: Sodium/nucleoside co-transporter radioligand binding (ligand: nitrobenzylthioinosine). The settings on record: Not Active = under 50% inhibition at 10 µM. In kind it is cell membranes, Cavia porcellus, Dunkin-Hartley, Cerebral cortex, Membrane.
Another assay has as its target T3, Estrogen receptor (Homo sapiens, UniProt P03372). Also: in other assays of this panel Not Active means under 50% inhibition at 10 µM.
T3 sequence (P03372 whole entry): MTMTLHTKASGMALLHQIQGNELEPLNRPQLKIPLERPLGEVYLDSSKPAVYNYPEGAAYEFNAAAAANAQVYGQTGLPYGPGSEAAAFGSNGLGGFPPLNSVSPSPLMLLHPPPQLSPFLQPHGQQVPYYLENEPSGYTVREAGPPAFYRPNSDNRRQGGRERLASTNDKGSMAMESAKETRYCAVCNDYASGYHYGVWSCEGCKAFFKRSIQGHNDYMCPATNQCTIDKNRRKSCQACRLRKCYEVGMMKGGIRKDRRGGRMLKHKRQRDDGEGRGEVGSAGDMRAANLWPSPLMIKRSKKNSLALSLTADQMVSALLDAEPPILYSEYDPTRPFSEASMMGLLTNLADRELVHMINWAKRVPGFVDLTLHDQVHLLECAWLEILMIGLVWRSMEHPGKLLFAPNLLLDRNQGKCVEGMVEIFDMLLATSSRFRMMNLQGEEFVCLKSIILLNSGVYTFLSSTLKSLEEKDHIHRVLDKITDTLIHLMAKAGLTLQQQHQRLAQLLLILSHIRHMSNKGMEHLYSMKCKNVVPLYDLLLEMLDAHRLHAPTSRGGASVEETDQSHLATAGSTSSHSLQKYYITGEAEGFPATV
The settings on record: sf9.

Assay [3] addresses Sigma non-opioid intracellular receptor 1 (Homo sapiens, UniProt Q99720). The experiment in a line: DRUGMATRIX: Sigma1 radioligand binding (ligand: [3H] Haloperidol). It counts as cell membranes, Jurkat, Membrane. The settings on record: jurkat; Not Active = under 50% inhibition at 10 µM.
Assay [4] can be described thus: DRUGMATRIX: Serotonin (5-Hydroxytryptamine) 5-HT3 radioligand binding (ligand: [3H] GR-65630). The settings on record: hek293; Not Active = under 50% inhibition at 10 µM. It counts as cell membranes, Membrane.

Sequence of Sigma non-opioid intracellular receptor 1 (Q99720 whole entry): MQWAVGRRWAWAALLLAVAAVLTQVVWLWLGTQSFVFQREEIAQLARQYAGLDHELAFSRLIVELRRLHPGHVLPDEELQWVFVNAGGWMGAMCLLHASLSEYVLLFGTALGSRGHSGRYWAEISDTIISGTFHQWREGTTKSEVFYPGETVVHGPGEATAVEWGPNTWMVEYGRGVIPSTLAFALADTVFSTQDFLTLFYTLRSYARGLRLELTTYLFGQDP
Sequence of Vasopressin V1a receptor (P37288 whole entry): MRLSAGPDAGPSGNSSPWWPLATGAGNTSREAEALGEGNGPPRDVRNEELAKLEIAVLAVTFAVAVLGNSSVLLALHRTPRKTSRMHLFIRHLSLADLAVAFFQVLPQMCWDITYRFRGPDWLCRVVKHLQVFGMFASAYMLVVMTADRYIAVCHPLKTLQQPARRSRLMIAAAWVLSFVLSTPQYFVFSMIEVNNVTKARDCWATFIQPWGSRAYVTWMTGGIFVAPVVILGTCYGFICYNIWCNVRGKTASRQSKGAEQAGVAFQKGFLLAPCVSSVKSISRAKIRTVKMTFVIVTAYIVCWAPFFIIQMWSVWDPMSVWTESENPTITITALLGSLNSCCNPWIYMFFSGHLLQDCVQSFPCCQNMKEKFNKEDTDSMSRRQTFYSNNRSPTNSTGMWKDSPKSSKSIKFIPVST

`CCOc1nc2cccc(C(=O)O)c2n1Cc1ccc(-c2ccccc2-c2nnn[nH]2)cc1`: the IC50 result (against Vasopressin V1a receptor; against B2 bradykinin receptor; at Calcitonin receptor; in assay [1]; in assay [2]; against Estrogen receptor) was “Not Active” throughout. Besides, the IC50 result in assay [3] and in assay [4] was “Not Active” throughout. For the same molecule, the Ki result in assay [1], in assay [2] and in assay [4] was “Not Active” in each case.

As for `O=C(O)CCCc1cccs1`, the IC50 result (against Vasopressin V1a receptor; against B2 bradykinin receptor; on Calcitonin receptor; in assay [1]; in assay [2]; on Estrogen receptor) was “Not Active” throughout. The 50% inhibitory concentration (IC50) result in assay [3] and in assay [4] was “Not Active” each time. Moreover, the Ki entry in assay [1], in assay [2] and in assay [4] was “Not Active” in each case.

Take `O=C(c1ccccc1F)N1CCC(Cc2ccccc2)CC1`: the concentration for half-maximal inhibition (IC50) entry (against Vasopressin V1a receptor; at B2 bradykinin receptor; at Calcitonin receptor; in assay [1]; in assay [2]; on Estrogen receptor) was “Not Active” each time. Moreover, the 50% inhibitory concentration (IC50) result in assay [3] and in assay [4] was “Not Active” in each case. The Ki entry in assay [1], in assay [2] and in assay [4] was “Not Active” throughout.

As for `CC(O)COC[C@H]1O[C@@H]2O[C@H]3[C@H](O)[C@@H](O)[C@@H](O[C@H]4[C@H](O)[C@@H](O)[C@@H](O[C@H]5[C@H](O)[C@@H](O)[C@@H](O[C@H]6[C@H](O)[C@@H](O)[C@@H](O[C@H]7[C@H](O)[C@@H](O)[C@@H](O[C@H]8[C@H](O)[C@@H](O)[C@@H](O[C@H]1[C@H](O)[C@H]2O)O[C@@H]8COCC(C)O)O[C@@H]7COCC(C)O)O[C@@H]6COCC(C)O)O[C@@H]5COCC(C)O)O[C@@H]4COCC(C)O)O[C@@H]3COCC(C)O` (stereo partly drawn) [2-HYDROXYPROPYL-BETA-CYCLODEXTRIN], the half-inhibitory concentration (IC50) entry (against Vasopressin V1a receptor; on B2 bradykinin receptor; at Calcitonin receptor; in assay [1]; in assay [2]; at Estrogen receptor) was “Not Active” in each case. For the same molecule, the IC50 entry in assay [3] and in assay [4] was “Not Active” in each case. Besides, the Ki result in assay [1], in assay [2] and in assay [4] was “Not Active” throughout.

Turning to `NC(=O)c1cccc(N)c1` [3-AMINOBENZAMIDE], the half-inhibitory concentration (IC50) entry (against Vasopressin V1a receptor; against B2 bradykinin receptor; on Calcitonin receptor; in assay [1]; in assay [2]; against Estrogen receptor) was “Not Active” in each case. Moreover, the IC50 entry in assay [3] and in assay [4] was “Not Active” each time. Moreover, the Ki result in assay [1], in assay [2] and in assay [4] was “Not Active” each time.

Take `CN1CCN(C(c2ccccc2)c2ccccc2)CC1` [CYCLIZINE]: the IC50 result (at Vasopressin V1a receptor; at B2 bradykinin receptor; at Calcitonin receptor; in assay [1]; in assay [2]; against Estrogen receptor) was “Not Active” each time. In assay [4], the IC50 result is listed as “Not Active”. The Ki result in assay [1], in assay [2] and in assay [4] was “Not Active” throughout.

Regarding `O=c1c(-c2ccc(O)cc2)coc2cc(O)cc(O)c12` [GENISTEIN], the IC50 result is “Not Active” against Vasopressin V1a receptor; “Not Active” against B2 bradykinin receptor; “Not Active” at Calcitonin receptor; 11 µM in assay [1] (read-out: IC50); “Not Active” in assay [2]; “Not Active” in assay [3]. Further, the IC50 entry in assay [4] is reported as “Not Active”. Besides, the Ki entry in assay [2] and in assay [4] was “Not Active” throughout.

In the case of `C[N+](C)(C)C[C@H](O)CC(=O)[O-]` [LEVOCARNITINE], the half-inhibitory concentration (IC50) result (at Vasopressin V1a receptor; on B2 bradykinin receptor; on Calcitonin receptor; in assay [1]; in assay [2]; in assay [3]) was “Not Active” throughout. Moreover, the half-maximal inhibitory concentration (IC50) result in assay [4] is given as “Not Active”. The Ki entry in assay [1], in assay [2] and in assay [4] was “Not Active” throughout.

`C[C@H]1COc2c(N3CCN(C)CC3)c(F)cc3c(=O)c(C(=O)O)cn1c23.C[C@H]1COc2c(N3CCN(C)CC3)c(F)cc3c(=O)c(C(=O)O)cn1c23.O` [LEVOFLOXACIN]: the IC50 entry (on Vasopressin V1a receptor; at B2 bradykinin receptor; at Calcitonin receptor; in assay [1]; in assay [2]; in assay [3]) was “Not Active” in each case. Moreover, in assay [4], the half-inhibitory concentration (IC50) entry is “Not Active”. In addition, the Ki result in assay [1], in assay [2] and in assay [4] was “Not Active” in each case.

Consider `CN(C)C(=N)NC(=N)N` [METFORMIN], for which the half-inhibitory concentration (IC50) result (at Vasopressin V1a receptor; at B2 bradykinin receptor; on Calcitonin receptor; in assay [1]; in assay [2]; in assay [3]) was “Not Active” in each case. In addition, the IC50 entry in assay [4] is “Not Active”. For the same molecule, the Ki result in assay [1], in assay [2] and in assay [4] was “Not Active” each time.

Take `CS(=O)(=O)Nc1ccc([N+](=O)[O-])cc1Oc1ccccc1` [NIMESULIDE]: the IC50 result (against Vasopressin V1a receptor; against B2 bradykinin receptor; at Calcitonin receptor; in assay [1]; in assay [2]; in assay [3]) was “Not Active” in each case. Also, the IC50 result in assay [4] is “Not Active”. In addition, the Ki entry in assay [1], in assay [2] and in assay [4] was “Not Active” each time.

In the case of `COc1ccc2c(c1OC)C(=O)O[C@@H]2[C@H]1c2c(cc3c(c2OC)OCO3)CCN1C` [NOSCAPINE], the IC50 result (on Vasopressin V1a receptor; on B2 bradykinin receptor; on Calcitonin receptor; in assay [1]; in assay [2]; in assay [3]) was “Not Active” each time. In assay [4], the IC50 entry is “Not Active”. Also, the Ki result in assay [1], in assay [2] and in assay [4] was “Not Active” throughout.

On to `NC(=O)N1c2ccccc2CC(=O)c2ccccc21` [OXCARBAZEPINE], for which the IC50 entry (against Vasopressin V1a receptor; at B2 bradykinin receptor; at Calcitonin receptor; in assay [1]; in assay [2]; in assay [3]) was “Not Active” throughout. Besides, in assay [4], the half-inhibitory concentration (IC50) result is recorded as “Not Active”. The Ki entry in assay [1], in assay [2] and in assay [4] was “Not Active” in each case.

As to `CCN(CC)CCNC(=O)c1ccc(N)cc1` [PROCAINAMIDE], the 50% inhibitory concentration (IC50) result (at Vasopressin V1a receptor; at B2 bradykinin receptor; at Calcitonin receptor; in assay [1]; in assay [2]; in assay [3]) was “Not Active” throughout. Besides, the IC50 result in assay [4] was “Not Active”. The Ki entry in assay [1], in assay [2] and in assay [4] was “Not Active” each time.
